For this test, the target named is α-glucosidase. Nature of the test: α-glucosidase inhibition (assay details and enzyme source not described). Type of test: biochemical.

These results are taken from paper PMC7723023, “Antimicrobial, anti-cancer, anti-filarial and anti-inflammatory activities of Cowabenzophenone A extracted from the endophytic fungus Aspergillus terreus isolated from a mangrove plant Bruguiera gymnorrhyza” (Mycology, 2019).

SMILES strings stand for the structures.

As usually defined, the IC50 is the midpoint of a concentration-inhibition curve.

Compound `C=C(C)C1CC23C(=O)C4(C/C=C(\C)CCC=C(C)C)CC(CC2C1(C)C)C(C)(C)C(C(=O)c1ccccc1)(C4=O)C3=O` (stereo not shown) [Cowabenzophenone A] registered an IC50 of 7.8 ± 0.5 µM.
